Assay results: PMC6044503 (ACS Omega, 2017)
Where a SMILES comes first, the peptide text is derived from it. [ ]: non-standard residue; d: D form. The star is where a group is joined. Phe(4-F) = N[C@@H](Cc1ccc(F)cc1)C(=O)O; 2Nal = N[C@@H](Cc1ccc2ccccc2c1)C(=O)O; Cyclohexanecarbonyl = O=C(C1CCCCC1)*; Cha = N[C@@H](CC1CCCCC1)C(=O)O; Aib = CC(C)(N)C(=O)O; Bz = O=C(c1ccccc1)*

How the values were obtained:
[1] = target: T1, human Y2R (Homo sapiens, UniProt P49146); assay: biochemical; type: binding
T1 sequence (P49146 1-381): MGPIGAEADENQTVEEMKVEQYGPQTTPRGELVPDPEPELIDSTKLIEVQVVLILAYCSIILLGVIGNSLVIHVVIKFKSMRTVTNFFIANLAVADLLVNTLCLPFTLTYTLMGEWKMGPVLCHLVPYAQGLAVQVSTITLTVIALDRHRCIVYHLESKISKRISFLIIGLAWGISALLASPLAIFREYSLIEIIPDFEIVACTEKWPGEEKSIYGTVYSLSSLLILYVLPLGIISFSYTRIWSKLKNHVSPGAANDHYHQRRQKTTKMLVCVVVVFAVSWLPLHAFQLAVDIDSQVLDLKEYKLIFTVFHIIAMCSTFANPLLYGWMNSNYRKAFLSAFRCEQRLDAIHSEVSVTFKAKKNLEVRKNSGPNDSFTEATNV

[2] = target: T1, human Y2R; assay: biochemical; type: biochemical
[3] = Stability in 20% mouse serum/PBS; type: in vitro ADME; details: for remaining at 0.5 h: mouse, 20% mouse serum in PBS
[4] = test system: male C57BL/6J mice; assay: Food intake assay, bolus ip administration in lean mice; type: in vivo, mouse; details: 3 h after administration, vs saline, mean ± SD

Compound | IC50 [1] | EC50 [2] | remaining at 0.5 h [3] | % food intake inhibition ([4]; bolus ip 250 nmol/kg) | % food intake inhibition ([4]; bolus ip 500 nmol/kg) | % food intake inhibition ([4]; bolus ip 1000 nmol/kg) | % food intake inhibition ([4]; bolus ip 2000 nmol/kg) | metabolites in mouse serum ([3]; within 30 min in 20% mouse serum/PBS) | agonist activity, fold increase compared to that of 4 ([2]; relative to compound 4)
CC[C@H](C)[C@H](NC(=O)[C@H](CC1CCCCC1)NC(=O)[C@H](Cc1c[nH]cn1)NC(=O)[C@H](CCCNC(=N)N)NC(=O)c1ccccc1)C(=O)N[C@@H](CC(N)=O)C(=O)N[C@@H](CC(C)C)C(=O)NC(C)(C)C(=O)N[C@H](C(=O)N[C@@H](CCCNC(=N)N)C(=O)N[C@@H](CCC(N)=O)C(=O)N[C@@H](CCCNC(=N)N)C(=O)N[C@@H](CC1CCCCC1)C(N)=O)[C@@H](C)O [Compound 10] (Bz-RH[Cha]INL[Aib]TRQR[Cha]-NH2) | 4.8 nM | 1.1 nM | 94% | 3 ± 4% | 8 ± 7% | 39 ± 3% | 60 ± 7% | – | –
CC[C@H](C)[C@H](NC(=O)[C@H](CC1CCCCC1)NC(=O)[C@H](Cc1c[nH]cn1)NC(=O)[C@H](CCCNC(=N)N)NC(=O)c1ccccc1)C(=O)N[C@@H](CC(N)=O)C(=O)N[C@@H](Cc1ccc(F)cc1)C(=O)N[C@H](C(=O)N[C@H](C(=O)N[C@@H](CCCNC(=N)N)C(=O)N[C@@H](CCC(N)=O)C(=O)N[C@@H](CCCNC(=N)N)C(=O)N[C@@H](CC1CCCCC1)C(N)=O)[C@@H](C)O)[C@@H](C)CC [Compound 6] (Bz-RH[Cha]IN[Phe(4-F)]ITRQR[Cha]-NH2) | 11 nM | 2.9 nM | 96% | – | 18 ± 5% | 40 ± 5% | – | – | –
CC[C@H](C)[C@H](NC(=O)[C@H](CC1CCCCC1)NC(=O)[C@H](Cc1c[nH]cn1)NC(=O)[C@H](CCCNC(=N)N)NC(=O)c1ccccc1)C(=O)N[C@@H](CC(N)=O)C(=O)N[C@@H](Cc1c[nH]c2ccccc12)C(=O)NC(C)(C)C(=O)N[C@H](C(=O)N[C@@H](CCCNC(=N)N)C(=O)N[C@@H](CCC(N)=O)C(=O)N[C@@H](CCCNC(=N)N)C(=O)N[C@@H](CC1CCCCC1)C(N)=O)[C@@H](C)O [Compound 11] (Bz-RH[Cha]INW[Aib]TRQR[Cha]-NH2) | 11 nM | 2.4 nM | 95% | – | 12 ± 3% | 36 ± 8% | 52 ± 5% | – | –
CC[C@H](C)[C@H](NC(=O)[C@H](CC1CCCCC1)NC(=O)[C@H](Cc1c[nH]cn1)NC(=O)[C@H](CCCNC(=N)N)NC(=O)c1ccccc1)C(=O)N[C@@H](CC(N)=O)C(=O)N[C@@H](CC(C)C)C(=O)N[C@@H](CC1CCCCC1)C(=O)N[C@H](C(=O)N[C@@H](CCCNC(=N)N)C(=O)N[C@@H](CCC(N)=O)C(=O)N[C@@H](CCCNC(=N)N)C(=O)N[C@@H](CC1CCCCC1)C(N)=O)[C@@H](C)O [Compound 8] (Bz-RH[Cha]INL[Cha]TRQR[Cha]-NH2) | 25 nM | 7.3 nM | 114% | – | 17 ± 8% | 46 ± 8% | – | – | –
CC[C@H](C)[C@H](NC(=O)[C@H](CC1CCCCC1)NC(=O)[C@H](Cc1c[nH]cn1)NC(=O)[C@H](CCCNC(=N)N)NC(=O)c1ccccc1)C(=O)N[C@@H](CC(N)=O)C(=O)N[C@@H](Cc1c[nH]c2ccccc12)C(=O)N[C@H](C(=O)N[C@H](C(=O)N[C@@H](CCCNC(=N)N)C(=O)N[C@@H](CCC(N)=O)C(=O)N[C@@H](CCCNC(=N)N)C(=O)N[C@@H](CC1CCCCC1)C(N)=O)[C@@H](C)O)[C@@H](C)CC [Compound 5] (Bz-RH[Cha]INWITRQR[Cha]-NH2) | 9.8 nM | 2.3 nM | 93% | 10 ± 4% | 8 ± 7% | 40 ± 2% | 65 ± 5% | – | –
CC[C@H](C)[C@H](NC(=O)[C@H](Cc1ccc2ccccc2c1)NC(=O)[C@H](Cc1c[nH]cn1)NC(=O)[C@H](CCCNC(=N)N)NC(=O)c1ccccc1)C(=O)N[C@@H](CC(N)=O)C(=O)N[C@@H](Cc1c[nH]c2ccccc12)C(=O)N[C@H](C(=O)N[C@H](C(=O)N[C@@H](CCCNC(=N)N)C(=O)N[C@@H](CCC(N)=O)C(=O)N[C@@H](CCCNC(=N)N)C(=O)N[C@@H](CC1CCCCC1)C(N)=O)[C@@H](C)O)[C@@H](C)CC [Compound 15] (Bz-RH[2Nal]INWITRQR[Cha]-NH2) | 19 nM | 7.3 nM | 100% | – | 19 ± 7% | – | – | – | –
CC[C@H](C)[C@H](NC(=O)[C@H](CC1CCCCC1)NC(=O)[C@H](Cc1c[nH]cn1)NC(=O)[C@H](CCCNC(=N)N)NC(=O)c1ccccc1)C(=O)N[C@@H](CC(N)=O)C(=O)N[C@@H](CC(C)C)C(=O)N[C@H](C(=O)N[C@H](C(=O)N[C@@H](CCCNC(=N)N)C(=O)N[C@@H](CCC(N)=O)C(=O)N[C@@H](CCCNC(=N)N)C(=O)N[C@@H](CC1CCCCC1)C(N)=O)[C@@H](C)O)[C@@H](C)CC [Compound 4] (Bz-RH[Cha]INLITRQR[Cha]-NH2) | 7.2 nM | 3.6 nM | 102% | – | – | 34 ± 6% | – | did not yield any apparent metabolites | –
C[C@@H](O)[C@H](NC(=O)C(C)(C)NC(=O)[C@H](Cc1c[nH]c2ccccc12)NC(=O)[C@H](CC(N)=O)NC(=O)[C@H](CC1CCCCC1)NC(=O)[C@H](CC1CCCCC1)NC(=O)[C@H](Cc1c[nH]cn1)NC(=O)[C@H](CCCNC(=N)N)NC(=O)C1CCCCC1)C(=O)N[C@@H](CCCNC(=N)N)C(=O)N[C@@H](CCC(N)=O)C(=O)N[C@@H](CCCNC(=N)N)C(=O)N[C@@H](CC1CCCCC1)C(N)=O [Compound 27] (Cyclohexanecarbonyl-RH[Cha][Cha]NW[Aib]TRQR[Cha]-NH2) | 8.9 nM | 2.2 nM | – | – | 12 ± 8% | – | – | – | –
CC(C)C[C@H](NC(=O)[C@H](CC(N)=O)NC(=O)[C@H](Cc1c[nH]c2ccccc12)NC(=O)[C@H](CC1CCCCC1)NC(=O)[C@H](Cc1c[nH]cn1)NC(=O)[C@H](CCCNC(=N)N)NC(=O)c1ccccc1)C(=O)NC(C)(C)C(=O)N[C@H](C(=O)N[C@@H](CCCNC(=N)N)C(=O)N[C@@H](CCC(N)=O)C(=O)N[C@@H](CCCNC(=N)N)C(=O)N[C@@H](CC1CCCCC1)C(N)=O)[C@@H](C)O [Compound 18] (Bz-RH[Cha]WNL[Aib]TRQR[Cha]-NH2) | 6.4 nM | 1.6 nM | – | – | 2 ± 8% | – | – | – | –
CC[C@H](C)[C@H](NC(=O)[C@H](Cc1ccc(O)cc1)NC(=O)[C@H](C)NC(=O)[C@H](CCCNC(=N)N)NC(=O)c1ccccc1)C(=O)N[C@@H](CC(N)=O)C(=O)N[C@@H](CC(C)C)C(=O)N[C@H](C(=O)N[C@H](C(=O)N[C@@H](CCCNC(=N)N)C(=O)N[C@@H](CCC(N)=O)C(=O)N[C@@H](CCCNC(=N)N)C(=O)N[C@@H](Cc1ccc(O)cc1)C(N)=O)[C@@H](C)O)[C@@H](C)CC [Compound 1, benzoyl-[Ala^26,Ile^28,31]PYY(25–36)] (Bz-RAYINLITRQRY-NH2) | 16 nM | 1.7 nM | 5% | – | – | – | 25 ± 7% | – | –
CC[C@H](C)[C@H](NC(=O)[C@H](CC1CCCCC1)NC(=O)[C@H](Cc1c[nH]cn1)NC(=O)[C@H](CCCNC(=N)N)NC(=O)c1ccccc1)C(=O)N[C@@H](CC(N)=O)C(=O)N[C@@H](Cc1c[nH]c2ccccc12)C(=O)N[C@@H](CCCCN)C(=O)N[C@H](C(=O)N[C@@H](CCCNC(=N)N)C(=O)N[C@@H](CCC(N)=O)C(=O)N[C@@H](CCCNC(=N)N)C(=O)N[C@@H](CC1CCCCC1)C(N)=O)[C@@H](C)O [Compound 12] (Bz-RH[Cha]INWKTRQR[Cha]-NH2) | 2.4 nM | 0.84 nM | 51% | – | – | 4 ± 13% | – | – | –
CC[C@H](C)[C@H](NC(=O)[C@H](CC1CCCCC1)NC(=O)[C@H](Cc1c[nH]cn1)NC(=O)[C@H](CCCNC(=N)N)NC(=O)C1CCCCC1)C(=O)N[C@@H](CC(N)=O)C(=O)N[C@@H](CC(C)C)C(=O)NC(C)(C)C(=O)N[C@H](C(=O)N[C@@H](CCCNC(=N)N)C(=O)N[C@@H](CCC(N)=O)C(=O)N[C@@H](CCCNC(=N)N)C(=O)N[C@@H](CC1CCCCC1)C(N)=O)[C@@H](C)O [Compound 16] (Cyclohexanecarbonyl-RH[Cha]INL[Aib]TRQR[Cha]-NH2) | 4.9 nM | 1.6 nM | – | – | 5 ± 13% | – | – | – | –
C[C@@H](O)[C@H](NC(=O)C(C)(C)NC(=O)[C@H](Cc1ccc(F)cc1)NC(=O)[C@H](CC(N)=O)NC(=O)[C@H](CC1CCCCC1)NC(=O)[C@H](CC1CCCCC1)NC(=O)[C@H](Cc1c[nH]cn1)NC(=O)[C@H](CCCNC(=N)N)NC(=O)C1CCCCC1)C(=O)N[C@@H](CCCNC(=N)N)C(=O)N[C@@H](CCC(N)=O)C(=O)N[C@@H](CCCNC(=N)N)C(=O)N[C@@H](CC1CCCCC1)C(N)=O [Compound 28] (Cyclohexanecarbonyl-RH[Cha][Cha]N[Phe(4-F)][Aib]TRQR[Cha]-NH2) | 31 nM | 7.2 nM | – | – | 21 ± 7% | – | – | – | –
CC[C@H](C)[C@H](NC(=O)[C@H](CC1CCCCC1)NC(=O)[C@H](Cc1c[nH]cn1)NC(=O)[C@H](CCCNC(=N)N)NC(=O)c1ccccc1)C(=O)N[C@@H](CC(N)=O)C(=O)N[C@@H](CC(C)C)C(=O)N[C@@H](CCCCN)C(=O)N[C@H](C(=O)N[C@@H](CCCNC(=N)N)C(=O)N[C@@H](CCC(N)=O)C(=O)N[C@@H](CCCNC(=N)N)C(=O)N[C@@H](CC1CCCCC1)C(N)=O)[C@@H](C)O [Compound 9] (Bz-RH[Cha]INLKTRQR[Cha]-NH2) | 1.6 nM | 0.62 nM | – | – | – | –15 ± 7% | – | – | more than 4 fold
